Here are results for eight compounds from PMC8037310, “Thrombin-Derived Peptides Potentiate the Activity of Gram-Positive-Specific Antibiotics against Gram-Negative Bacteria” (Molecules, 2021).

Where “and” joins values, the source holds several entries; their conditions need not be identical. Equal entries are not always repeated. Where two headings read alike, the source gives them in different places. Square brackets hold non-standard residues; d marks the D form. Peptide text beside a SMILES is read from it. Some results are limits rather than exact numbers.

For series [1], the system named is E. coli BW25113. The series is described as follows: Checkerboard assay with erythromycin. Particulars: for MSCery: erythromycin concentration in the combination with the synergist giving the lowest FICi, E. coli BW25113; for MIC of the peptide (MICpep): synergist alone, from checkerboard with erythromycin; for MIC of the peptide (MICpep) / MSCpeptide, minimum synergistic concentration: E. coli BW25113, LB, 20 h 37 °C; for MSCpeptide, minimum synergistic concentration: synergist concentration in the combination with erythromycin giving the lowest FICi, OD600; for FICi: with erythromycin vs E. coli BW25113, synergy defined as FICi ≤ 0.5. It counts as cell-based, Escherichia coli. On the procedure:
(§1) All peptides were screened for antimicrobial activity against E. coli BW25113, E. coli ATCC25922, and E. coli W3110. A select group of the peptides was further tested against E. coli mcr-1, E. coli EQASmcr-1 (EQAS 2016 412016126), E. coli EQASmcr-2 (EQAS 2016 KP37), E. coli EQASmcr-3 (EQAS 2017 2013-SQ352), K. pneumoniae ATCC13883, P. aeruginosa ATCC27853, and A. baumannii ATCC17978. The antimicrobial assay was performed according to CLSI guidelines. Bacteria were plated out directly from their glycerol stocks on blood agar plates, incubated overnight at 37 °C, and then kept in the fridge. The blood agar plates were only used for 2 weeks and then replaced.
(§2) One colony from a blood agar plates was inoculated in Lysogeny Broth (LB) at 37 °C until a 0.5 optical density at 600 nm (OD600) was reached (compared to the sterility control of LB). The bacterial suspension was diluted in fresh LB to 2.0 × 10^6 CFU/mL. The serial dilutions were prepared in polypropylene microtiter plates: a stock of the test compounds was prepared with a 2x final concentration in LB. Moreover, 100 µL of the stock was added to the wells of the top row of which 50 µL was used for the serial dilution. The bottom row of each plate was used as the positive (50 µL of LB) and negative controls (100 µL of LB) (6 wells each). Furthermore, 50 µL of the 2.0 × 10^6 CFU/mL bacterial stock was added to each well except for the negative controls, adding up to a total volume of 100 µL per well. The plates were sealed with a breathable seal and incubated for 20 h at 37 °C and 600 rpm.
(§3) Two 96-well plates were required per compound. A serial dilution of the compound was performed on two plates from row A–G using with LB as medium. Row H was filled with 25 µL medium. On a separate plate a negative control (8 wells, 100 μL medium) was prepared. For all concentrations of antibiotic a specific stock was prepared. 25 µL medium was added to the 0 µg/mL antibiotic columns (plate I, column 1–3). Of each antibiotic stock 25 µL was added to three columns to obtain triplicates for every condition. Both plates contained 50 µL in each well to which 50 µL bacterial stock was added (see the protocol of the MIC assays) and the plates were sealed. After incubation for 20 h at 37 °C while shaking, the breathable seals were removed and the density of the bacterial suspensions measured at 600 nm (OD600) using a Tecan Spark plate reader. The OD600 values were transformed to a 2D gradient with the negative control as minimum and the positive control (wells G1, G2, and G3) as maximum in excel. The FICi was calculated using Equation (1) with a FICi ≤ 0.5 indicating synergy. FICi = (MSCa/MICa) + (MSCb/MICb),(1)
(§4) Calculation of the FICi: MSCa = concentration of the […] in combination with the antibiotic that results in the lowest FICi. MICa = MIC of the antibiotic without synergist (row G). MSCb = concentration of the synergist in combination with the antibiotic that results in the lowest FICi. MICb = MIC of the synergist itself (Column 1–3, plate I).

Series [2] has as its system defibrinated sheep blood (red blood cells). The series is described as follows: Hemolysis assay. Particulars: 200 µg/mL compound, 20 h incubation at 37 °C with defibrinated sheep blood, PBS 0.002% Tween20, absorbance 415 nm, relative to 0.1% Triton X-100; n=3 technical replicates. Type of series: cell-based. The method, then: Defibrinated sheep blood (Thermo Fisher Scientific) and a phosphate-buffered saline (PBS) buffer containing 0.002% Tween20 were used in this assay. The red blood cells were washed with buffer followed by centrifugation (400 g for 15 min at 4 °C). The red blood cells were then normalized to obtain a positive control read-out around 2.5 at 415 nm to stay in the linear range with the maximum sensitivity. A serial dilution of the compounds (200–1.56 µg/mL, 75 µL) was prepared in a 96-well plate. Each plate contained a positive control (0.1% Triton X-100 final concentration, 75 µL) and the negative control (buffer, 75 µL). After addition of normalized blood cells (75 µL), the plates were incubated for 20 h at 37 °C at 500 rpm. The plates were centrifuged (800× g for 5 min at room temperature). For the next step flat-bottom polystyrene plates were prepared with 100 µL buffer in each well. Aliquots of 25 µL supernatant from the centrifuged plates were then transferred to their respective wells in the flat-bottom plate. Absorbance values where measured at 415 nm and corrected for background (negative control) and transformed to a percentage hemolysis relative to the positive control.

Series [3] relates to E. coli BW25113. It counts as cell-based, Escherichia coli. Particulars: for FICi: BW25113, 20 h; for MICpep: synergist alone, E. coli BW25113, from checkerboard with rifampicin; for MSCpep: synergist concentration in the combination with rifampicin giving the lowest FICi; for MSCpep / MSCrif: E. coli BW25113; for MSCrif: rifampicin concentration in the combination giving the lowest FICi. The method, then: as §1, §2, §3, §4

Take `CC[C@H](C)[C@H](NC(=O)[C@@H](NC(=O)[C@H](C)NC(=O)[C@H](CCC(N)=O)NC(=O)[C@@H](NC(=O)[C@H](Cc1c[nH]c2ccccc12)NC(=O)[C@H](CCCCN)NC(=O)[C@H](CCCCN)NC(=O)[C@H](CC(C)C)NC(=O)[C@H](CCCNC(=N)N)NC(=O)[C@H](Cc1ccccc1)NC(=O)[C@@H](N)C(C)C)[C@@H](C)CC)C(C)C)C(N)=O` [compound 17] (H-VFRLKKWIQAVI-NH2): in the series on E. coli BW25113 [1], the MSCery was found to be 6.25 µg/mL; the “MIC of the peptide (MICpep)” value came to 12.5 µg/mL; the “MSCpeptide, minimum synergistic concentration” value was 6.25 µg/mL; the FICi is recorded as greater than 0.5. Also, the Hemolysis in series [2] was 20.7% and 21%. For the same compound, in the series with E. coli BW25113 [3], the FICi amounted to 0.2656, the MICpep amounted to 25 µg/mL and the MSCpep came out at 6.25 µg/mL.

Take `CC[C@H](C)[C@H](N)C(=O)N[C@H](C(=O)N[C@@H](CCCCN)C(=O)N[C@@H](CCC(N)=O)C(=O)N[C@H](C(=O)N[C@@H](Cc1c[nH]c2ccccc12)C(=O)N[C@@H](CCCCN)C(=O)N[C@@H](CCCCN)C(=O)N[C@@H](CC(C)C)C(=O)N[C@@H](CCCNC(=N)N)C(=O)N[C@@H](Cc1ccccc1)C(=O)N[C@H](C(N)=O)C(C)C)[C@@H](C)CC)C(C)C` [peptide 21] (H-IVKQIWKKLRFV-NH2): in the series on E. coli BW25113 [1], the MSCery stood at 25 µg/mL; the “MIC of the peptide (MICpep)” value was greater than 200 µg/mL; the “MSCpeptide, minimum synergistic concentration” value was 50 µg/mL; the FICi was 0.2500. Moreover, the Hemolysis in series [2] was 2.2% and 2%. Besides, in the series with E. coli BW25113 [3], the FICi is 0.3750, the MSCrif worked out at 2 µg/mL, the MICpep was greater than 200 µg/mL and the MSCpep was found to be 50 µg/mL.

With `CC[C@@H](C)[C@@H](N)C(=O)N[C@@H](C(=O)N[C@H](CCCCN)C(=O)N[C@H](CCC(N)=O)C(=O)N[C@@H](C(=O)N[C@H](Cc1c[nH]c2ccccc12)C(=O)N[C@H](CCCCN)C(=O)N[C@H](CCCCN)C(=O)N[C@H](CC(C)C)C(=O)N[C@H](CCCNC(=N)N)C(=O)N[C@H](Cc1ccccc1)C(=O)N[C@@H](C(N)=O)C(C)C)[C@H](C)CC)C(C)C` [peptide 22] (H-[dI][dV][dK][dQ][dI][dW][dK][dK][dL][dR][dF][dV]-NH2), in the series on E. coli BW25113 [1], the MSCery was 6.25 µg/mL; the “MIC of the peptide (MICpep)” value is listed as 100 µg/mL; the “MSCpeptide, minimum synergistic concentration” value is reported as 6.25 µg/mL. The Hemolysis in series [2] is 3.2% and 3%. In the series on E. coli BW25113 [3], the FICi came to 0.1406, the MSCrif was 0.25 µg/mL, the MICpep was determined as 50 µg/mL and the MSCpep stood at 6.25 µg/mL.

Consider `CC[C@H](C)[C@H](NC(=O)[C@@H](NC(=O)[C@H](CCCCN)NC(=O)[C@H](CCC(N)=O)NC(=O)[C@H](C)NC(=O)[C@H](Cc1c[nH]c2ccccc12)NC(=O)[C@H](CCCCN)NC(=O)[C@H](CCCCN)NC(=O)[C@H](CC(C)C)NC(=O)[C@H](CCCNC(=N)N)NC(=O)[C@H](Cc1ccccc1)NC(=O)[C@@H](N)C(C)C)C(C)C)C(N)=O` [compound 15] (H-VFRLKKWAQKVI-NH2), for which, in the series on E. coli BW25113 [1], the MSCery came out at 12.5 µg/mL; the “MIC of the peptide (MICpep)” value was 100 µg/mL; the “MSCpeptide, minimum synergistic concentration” value is reported as 12.5 µg/mL. Besides, the Hemolysis in series [2] was 0.9% and 1%. Moreover, in the series with E. coli BW25113 [3], the FICi was 0.0938, the MSCrif was determined as 0.25 µg/mL, the MICpep was found to be 100 µg/mL and the MSCpep was 6.25 µg/mL.

Regarding `CC[C@H](C)[C@H](NC(=O)[C@@H](NC(=O)[C@H](CCCCN)NC(=O)[C@H](C)NC(=O)[C@@H](NC(=O)[C@H](Cc1c[nH]c2ccccc12)NC(=O)[C@H](CCCCN)NC(=O)[C@H](CCCCN)NC(=O)[C@H](CC(C)C)NC(=O)[C@H](CCCNC(=N)N)NC(=O)[C@H](Cc1ccccc1)NC(=O)[C@@H](N)C(C)C)[C@@H](C)CC)C(C)C)C(N)=O` [compound 16] (H-VFRLKKWIAKVI-NH2), in the series with E. coli BW25113 [1], the MSCery is 12.5 µg/mL; the “MIC of the peptide (MICpep)” value was determined as 25 µg/mL; the “MSCpeptide, minimum synergistic concentration” value worked out at 3.125 µg/mL. Besides, the Hemolysis in series [2] was 3.5% and 4%. In the series on E. coli BW25113 [3], the FICi is reported as 0.2656, the MICpep was 25 µg/mL and the MSCpep was determined as 6.25 µg/mL.

For the compound `CC[C@H](C)[C@H](NC(=O)[C@@H](NC(=O)[C@H](CCCCN)NC(=O)[C@H](CCC(N)=O)NC(=O)[C@@H](NC(=O)[C@H](Cc1c[nH]c2ccccc12)NC(=O)[C@H](CCCCN)NC(=O)[C@H](CCCCN)NC(=O)[C@H](CC(C)C)NC(=O)[C@H](CCCNC(=N)N)NC(=O)[C@H](C)NC(=O)[C@@H](N)C(C)C)[C@@H](C)CC)C(C)C)C(N)=O` [peptide 9] (H-VARLKKWIQKVI-NH2), in the series on E. coli BW25113 [1], the MSCery stood at 12.5 µg/mL; the “MIC of the peptide (MICpep)” value was determined as 50 µg/mL; the “MSCpeptide, minimum synergistic concentration” value stood at 3.125 µg/mL; the FICi is given as 0.1250. Also, in series [2], the Hemolysis was 0.1% and 0%. Also, in the series with E. coli BW25113 [3], the FICi is reported as 0.1406, the MICpep worked out at 200 µg/mL and the MSCpep was 25 µg/mL.

As to `CC[C@H](C)[C@H](NC(=O)[C@@H](NC(=O)[C@H](CCCCN)NC(=O)[C@H](CCC(N)=O)NC(=O)[C@@H](NC(=O)[C@H](Cc1c[nH]c2ccccc12)NC(=O)[C@H](CCCCN)NC(=O)[C@H](CCCCN)NC(=O)[C@H](CC(C)C)NC(=O)[C@H](CCCNC(=N)N)NC(=O)[C@H](Cc1ccccc1)NC(=O)[C@@H](N)C(C)C)[C@@H](C)CC)C(C)C)C(=O)O` [peptide 1] (H-VFRLKKWIQKVI-OH), in the series on E. coli BW25113 [1], the MSCery turned out to be 12.5 µg/mL; the “MIC of the peptide (MICpep)” value is reported as 200 µg/mL; the “MSCpeptide, minimum synergistic concentration” value was determined as 25 µg/mL. Besides, in series [2], the Hemolysis was 0.1% and 0%. Moreover, in the series with E. coli BW25113 [3], the MSCrif worked out at 0.25 µg/mL, the MICpep came out at 200 µg/mL and the MSCpep was 12.5 µg/mL.

For `CC[C@H](C)[C@H](NC(=O)[C@@H](NC(=O)[C@H](CCCCN)NC(=O)[C@H](CCC(N)=O)NC(=O)[C@@H](NC(=O)[C@H](Cc1c[nH]c2ccccc12)NC(=O)[C@H](CCCCN)NC(=O)[C@H](CCCCN)NC(=O)[C@H](CC(C)C)NC(=O)[C@H](CCCNC(=N)N)NC(=O)[C@H](Cc1ccccc1)NC(=O)[C@@H](NC(C)=O)C(C)C)[C@@H](C)CC)C(C)C)C(=O)O` [peptide 5] (Ac-VFRLKKWIQKVI-OH), in the series with E. coli BW25113 [1], the MSCery is 6.25 µg/mL; the “MIC of the peptide (MICpep)” value is greater than 200 µg/mL; the “MSCpeptide, minimum synergistic concentration” value is given as 50 µg/mL. The Hemolysis in series [2] was 0.2% and 0%. In the series with E. coli BW25113 [3], the MSCrif was found to be 0.25 µg/mL, the MICpep was greater than 200 µg/mL and the MSCpep came to 50 µg/mL.
